# Measurements taken from patent US20260008768A1, “UREA DERIVATIVES FOR INHIBITING NLRP3 AND USES THEREOF” (VENTUS THERAPEUTICS U.S., INC., priority 2023, published 2026).
# Legend:
# mouse NLRP3 = target: T1, mouse NLRP3 (Mus musculus, UniProt Q8R4B8); assay: Mouse Whole Blood (mWB) NLRP3 Assay (LPS/ATP, IL-1b); type: cell-based
# T1 construct: from tissue; host or cells: whole blood of female CD1 mice
# Procedure: Reagents: The following reagents were used: blood collection tubes (Heparin); U-bottom 96-well tissue culture (Falcon 353077); HBSS for LPS, ATP and compound dilutions (Gibco 24020-117); and LPS, E. coli serotype O26:B6 (Sigma L-2654).
# Mouse IL-1b MSD assay: Blood was drawn from female CD1 mice (9 to 10 weeks) by cardiac puncture. Blood was plated (135 μL) per well in 96-well U-bottom plates. 7.5 μL of 20×LPS (20 μg/mL, final concentration of 1 μg/mL) was added and mixed by gentle pipetting, and the mixture was incubated in a TC incubator for five hours. 7.5 μL of 20× compound or vehicle per well was added and mixed by gentle pipetting. Compounds were diluted 1/50 in HBSS to prepare a 20× dilution curve in 2% DMSO. The mixture was incubated for 30 minutes in a TC incubator with shaking (450 rpm). 5 μl of 31×ATP (155 mM, final concentration of 5 mM) was added and mixed by gentle pipetting. The mixture was incubated in a TC incubator for 30 minutes with shaking (450 rpm). The plate was centrifuged for 10 minutes at 800×g and ˜70 μL of plasma was removed. Plasma was frozen if required. Mouse IL-1b was analyzed with IL-1b MSD assay (K152TUK).
# Compounds were added 30 minutes before priming the cells with LPS when TNFα was required to be quantified in the cytokine panel to confirm selectivity.
# mWB NLRP3 IC50 assay results, as a measurement of whole blood potency, are provided in Table B. “A” activity=<1 uM; “B” activity=1-2 uM; “C” activity=>2-3 uM; “D” activity=>3 uM.
# human NLRP3 = human NLRP3 (Homo sapiens, UniProt Q96P20); assay: Human PBMC NLRP3 Assay (LPS priming, ATP stimulation, cytokine measurement); type: cell-based; set-up: host or cells: human PBMCs (A2); human whole blood from healthy volunteers (A3); details: for IC50: human PBMC, LPS + ATP
# Chain of human NLRP3 (Q96P20 whole entry): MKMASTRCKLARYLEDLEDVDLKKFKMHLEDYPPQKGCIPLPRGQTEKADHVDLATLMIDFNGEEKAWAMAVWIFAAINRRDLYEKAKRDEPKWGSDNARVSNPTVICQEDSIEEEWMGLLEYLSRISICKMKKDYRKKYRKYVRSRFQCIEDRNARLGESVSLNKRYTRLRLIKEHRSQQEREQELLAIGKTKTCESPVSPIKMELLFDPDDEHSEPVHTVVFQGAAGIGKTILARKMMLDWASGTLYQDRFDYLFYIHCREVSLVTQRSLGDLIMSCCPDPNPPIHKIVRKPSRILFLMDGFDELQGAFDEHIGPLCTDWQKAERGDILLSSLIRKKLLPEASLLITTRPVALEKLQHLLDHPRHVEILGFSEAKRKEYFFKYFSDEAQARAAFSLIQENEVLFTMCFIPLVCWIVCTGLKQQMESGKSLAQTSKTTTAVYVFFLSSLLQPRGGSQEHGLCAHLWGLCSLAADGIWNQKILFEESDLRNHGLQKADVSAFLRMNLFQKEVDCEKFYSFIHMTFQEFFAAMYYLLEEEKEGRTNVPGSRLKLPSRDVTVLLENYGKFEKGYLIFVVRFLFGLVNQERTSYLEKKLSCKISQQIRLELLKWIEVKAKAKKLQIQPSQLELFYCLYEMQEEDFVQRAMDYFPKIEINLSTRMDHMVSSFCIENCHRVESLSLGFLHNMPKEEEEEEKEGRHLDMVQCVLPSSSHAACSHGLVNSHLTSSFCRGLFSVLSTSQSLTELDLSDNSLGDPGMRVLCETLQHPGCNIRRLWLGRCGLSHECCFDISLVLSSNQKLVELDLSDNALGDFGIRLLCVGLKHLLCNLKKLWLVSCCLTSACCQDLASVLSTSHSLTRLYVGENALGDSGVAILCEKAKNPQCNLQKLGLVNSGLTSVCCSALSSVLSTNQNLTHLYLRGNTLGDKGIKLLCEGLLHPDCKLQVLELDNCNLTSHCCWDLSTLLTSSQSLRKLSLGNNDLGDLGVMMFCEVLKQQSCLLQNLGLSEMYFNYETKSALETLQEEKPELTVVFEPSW
# Summary of the method: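 Human PBMCs (5×10^4/well) primed with 100 ng/ml LPS for 4 h, then given compound for 30 min and stimulated with 5 mM ATP for 1 h at 37° C. Supernatant cytokines measured on the Mesoscale platform to give IC50. For TNFα selectivity, compound was added 30 min before LPS priming.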
# T1 sequence (Q8R4B8 whole entry): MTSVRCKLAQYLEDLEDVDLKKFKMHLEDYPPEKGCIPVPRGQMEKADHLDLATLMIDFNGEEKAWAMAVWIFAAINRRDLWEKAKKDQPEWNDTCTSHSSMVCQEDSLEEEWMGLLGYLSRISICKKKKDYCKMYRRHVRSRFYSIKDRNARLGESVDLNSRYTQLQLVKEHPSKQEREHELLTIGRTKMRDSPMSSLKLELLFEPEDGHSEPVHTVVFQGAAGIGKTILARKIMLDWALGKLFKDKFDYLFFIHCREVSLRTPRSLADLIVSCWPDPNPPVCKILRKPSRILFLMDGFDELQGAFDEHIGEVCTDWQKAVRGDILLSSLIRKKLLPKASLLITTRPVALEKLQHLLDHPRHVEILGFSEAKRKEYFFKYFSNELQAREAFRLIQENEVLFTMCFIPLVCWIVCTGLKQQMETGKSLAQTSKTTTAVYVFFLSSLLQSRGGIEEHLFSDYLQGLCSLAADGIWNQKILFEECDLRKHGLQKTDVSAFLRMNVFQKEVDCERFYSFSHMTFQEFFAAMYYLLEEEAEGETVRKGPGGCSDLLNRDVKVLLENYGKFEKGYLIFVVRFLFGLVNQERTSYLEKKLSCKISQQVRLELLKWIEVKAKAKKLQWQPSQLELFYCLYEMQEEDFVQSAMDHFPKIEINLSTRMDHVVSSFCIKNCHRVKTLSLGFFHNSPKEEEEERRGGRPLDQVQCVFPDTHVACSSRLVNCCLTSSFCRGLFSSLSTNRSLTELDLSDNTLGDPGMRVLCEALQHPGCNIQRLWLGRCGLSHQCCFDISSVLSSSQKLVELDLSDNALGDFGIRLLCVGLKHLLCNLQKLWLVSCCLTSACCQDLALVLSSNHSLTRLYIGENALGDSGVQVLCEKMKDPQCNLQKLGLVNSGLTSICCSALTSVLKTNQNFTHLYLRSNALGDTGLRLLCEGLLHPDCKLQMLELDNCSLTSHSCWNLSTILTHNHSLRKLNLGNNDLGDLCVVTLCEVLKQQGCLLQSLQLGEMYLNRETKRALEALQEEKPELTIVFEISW
"IC50 (mouse NLRP3; Table B, activity class)",IC50 (mouse NLRP3; Table C),"IC50 (human NLRP3; Table B, activity class)",IC50 (human NLRP3; Table C),fold improvement in potency (PBMC IC50) (human NLRP3; relative to Comparative Example B1),Structure (SMILES)
< 1 µM,0.095 µM,< 0.01 µM,0.0091 µM,,"C[C@@H]1CCN(c2nnn[nH]2)C[C@H](NC(=O)N(C)c2ccc(OC(F)(F)F)cc2)C1 (single isomer, unassigned) [10A*]"
< 1 µM,0.04 µM,< 0.01 µM,0.0068 µM,> 700 fold,"C[C@@H]1CCN(c2nnn[nH]2)C[C@H](NC(=O)N(C)c2ccc(Cl)cc2)C1 (single isomer, unassigned) [4A*]"
< 1 µM,0.026 µM,< 0.01 µM,0.0042 µM,,"C[C@@H]1CCN(c2nnn[nH]2)C[C@H](NC(=O)N(C)c2ccc(OC(F)F)cc2)C1 (single isomer, unassigned) [11A*]"
